In patent US8198317B2, “Methylenedioxy phenolic compounds and their use to treat disease” (The Ohio State University Research Foundation, priority 2008, dated 2012):

Columns and labels:
Format in all cases: in vivo, human
[1] = tested on: Patients; assay: Treatment of patients with Type I and Type II diabetes (Example 24); settings: diabetic patients, oral, 12 months
Source text: Individuals with Type I and Type II diabetes are at risk for future cardiovascular events such as heart attacks, strokes and kidney disease. These individuals are on prevention treatments such as hypolipidemic drug therapy such as statins and anti-hypertensive agents such as ACE inhibitors. They are already receiving glycemia lowering strategies such as Insulin, PPARγ agents, Metformin or sulfonylurea therapy. They also will receive an acceptable dose of a composition comprising a compound of the present invention in an acceptable carrier orally chronically for durations in excess of 12 months. In one study, 3,4-Methylenedioxy 6-nitro phenyl lipoate (INV-7465) or 3,4-Methylenedioxy phenyl lipoate (INV-7065) are administered to these individuals. The patients undergo the following measurements: HbA1C to assess glycemic control, urinary microalbuminura, blood pressure and lipid measurements. At the end of 12 months of treatment, there is lowering of HbA1C and urinary microalbuminuria. There is an improvement in VLDL cholesterol and a decrease in triglycerides with any of these treatments [(3,4-methylenedioxy phenyl acetate (INV 73); 3,4-methylenedioxy-6-nitrophenol (INV 74); 3,4-methylenedioxy-6-nitrophenyl acetate (INV 75); 3,4-Methylenedioxy 6-nitro phenyl lipoate (INV-7465) or 3,4-Methylenedioxy phenyl lipoate (INV-7065)].

[2] = tested on: Patient; assay: Treatment of a patient with recent myocardial infarction (Examples 16-18); settings: oral, 1.0 to 100 mg/kg
Method: (§1) A person presents with sudden chest pain typically radiating to the left arm or left side of the neck, shortness of breath, nausea and palpitation with vomiting and sweating. After being evaluated with an electrocardiogram (EKG, ECG), a chest X-ray and blood tests to detect elevations in cardiac markers (blood tests to detect heart muscle damage), they are diagnosed as suffering from myocardial infarction. The patient is administered therapy such as aspirin, a drug to reduce the tendency of platelet aggregation, such as clopidogrel bisulfate, a statin, IV heparin and taken to the catheterization laboratory where they undergo stenting of the coronary artery. They are allowed to recover for a 12-24 hour period. Oral therapy with 3,4-methylenedioxy-6-nitrophenyl acetate (INV 75) (1.0 to 100 mg/kg) is started and continued for at least a year. During the follow-up visit a month later, patient reports improvement in symptoms.
as §1, with “Oral therapy with 3,4-methylenedioxy-6-nitrophenyl acetate (INV 75) (1.0 to 100 mg/kg) is started and continued for at least a year. During the follow-up visit a month later, patient reports improvement in symptoms.” left out
A person presents with sudden chest pain typically radiating to the left arm or left side of the neck, shortness of breath, nausea and palpitation with vomiting and sweating. After being evaluated with an electrocardiogram (EKG, ECG), a chest X-ray and blood tests to detect elevations in cardiac markers (blood tests to detect heart muscle damage), they are diagnosed as suffering from myocardial infarction. […]

[3] = tested on: Humans; assay: Treatment of atherosclerosis in humans, primary prevention (Example 22); settings: oral, in excess of 12 months
Source text: Individuals with risk factors for atherosclerosis such as family history, hypertension and high cholesterol are known to be at risk for future cardiovascular events such as heart attacks and strokes. These individuals are on primary prevention treatments such as hypolipidemic drug therapy such as statins aspirin and anti-hypertensive agents such as ACE inhibitors, diuretics or calcium channel blockers. They also will receive an acceptable dose of a composition comprising a compound of the present invention in an acceptable carrier orally chronically for durations in excess of 12 months. In one study, 3,4-methylenedioxy phenyl acetate (INV 73); 3,4-methylenedioxy-6-nitrophenol (INV 74); 3,4-methylenedioxy-6-nitrophenyl acetate (INV 75); 3,4-Methylenedioxy 6-nitro phenyl lipoate (INV-7465) or 3,4-Methylenedioxy phenyl lipoate (INV-7065) are administered to these individuals. A repeat IVUS measurement is made at the end of the treatment period to assess the effect of the infusion of the composition on coronary atherosclerosis in the target vessel.

| Structure (SMILES) | VLDL cholesterol [1] | triglycerides [1] | symptoms at follow-up visit a month later [2] | plaque in the atherosclerotic coronary artery (IVUS) [3] | HbA1C [1] | urinary microalbuminuria [1] |
| --- | --- | --- | --- | --- | --- | --- |
| CC(=O)Oc1cc2c(cc1[N+](=O)[O-])OCO2 [INV-75, 3,4-methylenedioxy-6-nitrophenyl acetate] | improvement | decrease | improvement | reduced | – | – |
| O=C(CCCCC1CCSS1)Oc1cc2c(cc1[N+](=O)[O-])OCO2 (stereo not shown) [INV-7465, 3,4-Methylenedioxy 6-nitro phenyl lipoate] | improvement | decrease | improvement | reduced | lowering | lowering |
| O=C(CCCCC1CCSS1)Oc1ccc2c(c1)OCO2 (stereo not shown) [INV-7065, 3,4-Methylenedioxy phenyl lipoate] | improvement | decrease | improvement | reduced | lowering | lowering |
